Patent publication US9927437B2, “Treating neurodegenerative disease” (THE BRIGHAM AND WOMEN'S HOSPITAL, INC., priority 2013, dated 2018)
“Also recorded” adds a separate entry of the source.

Assays:
[1] = test system: B4GALT5/6; assay: Quantification of LacCer levels in the CNS (LC-MS/MS); type: in vivo, mouse; conditions: NOD EAE
Protocol: Chemical standards of LacCer (d18:1/16:0) and LacCer (d18:1/18:0) were obtained from Avanti Polar Lipids. Quantification of LacCer (d18:1/16:0) and LacCer (d18:1/18:0) was achieved by LC-MS/MS analysis performed on an Agilent (Agilent Technologies, Santa Clara, Calif.) 6460 triple-quadrupole LC/MS/MS system. The fragments from the [M+H]^+ ions for LacCer and internal standard were subjected to collision induced dissociation and the two major types of fragment ions were monitored via electrospray ionization in the positive ion mode in multiple reaction monitoring (MRM) mode for each ion. These two MRM transitions corresponded to the loss of the neutral lactosyl moiety, and to the formation of the lactose ion. Specifically, the MRM transitions used for quantification for LacCer (d18:1/16:0) and LacCer(d18:1/18:0) were 862.5>[…] and 890.6>548.5, respectively. Secondary confirmatory MRM transitions for LacCer(d18:1/16:0) and LacCer(d18:1/18:0) of 862.5>264.3 and 890.6>264.3 were also monitored. Mass spectrometer parameter settings were gas temp (325° C.), gas flow (12 L/min), nebulizer (25 psi), sheath gas temp (400° C.), sheath gas flow (12 L/min), capillary voltage (4000v), and nozzle voltage (500v). Liquid chromatography conditions with an a Phenomenex Gemini C18 column 4.6×50 mm 5 μm particle size was used for separation. Chromatography method the following flow rate=0.4 mLs/min; solvent A=5 mM ammonium formate in 5% MeOH and 0.1% formic acid v/v/v; solvent B=80% 2-propanol, 15% methanol, 5% water and 0.1% formic acid (v/v/v/v). […] Standard curve mixture was analyzed at various concentrations between 0.10 nM to 3.3 μM in LacCer (d18:1/16:0) and an internal standard concentration of 1 μM. The lower limit of quantification was estimated at 1 nM and a R^2 of 0.9969 was obtained using linear regression analysis. […]
The brain tissue was weighed and homogenized using a Dounce homogenizer (VWR), in the extraction solvent using a Bligh and Dyer type liquid-liquid extraction. […] The dried sample was reconstituted in 100 μl of 2:1 chloroform-methanol, and analyzed using the HPLC-MS.

[2] = test system: astrocytes; assay: Viability assay, astrocytes; type: cell-based, mouse; conditions: 1 h pre-treatment at indicated concentrations, LPS/IFNγ, 6 h after activation
Protocol: FIGS. 14a-g. B4GALT6 directly controls astrocyte activation. (a) Cultured astrocytes were pre-treated for 1 h with PDMP (25 μM), LacCer (10 μM), both (LacCer+PDMP), or vehicle control (vehicle), followed by activation with LPS/IFNγ for 6 h, or left un-treated (control, Con). mRNA expression was analyzed 6 h following activation. qPCR analysis of the expression of cc/5, csf2, nos2, il6, H2-Aa, and tlr2 presented relative to gapdh. Statistical analysis by one-way ANOVA, followed by Tukey post-hoc analysis. (b, c) Cultured astrocytes were pre-treated for 1 h with LacCer (b) or PDMP (c), at indicated concentrations, followed by activation with LPS/IFNγ, or left un-treated (control, Con). Cell viability was determined 6 h after activation. […] Astrocytes were then pre-treated for 1 h with PDMP, or vehicle control (vehicle), followed by activation with LPS/IFNγ for 6 h, or left un-treated (control, Con). mRNA expression for H2-Aa, Ccl5 and Cxcl10 was determined; expression is presented as fold induction relative to housekeeping gene (Gapdh). […] (f) NF-κB (P65), GAPDH, and Lamin B expression, in cytoplasmic and nuclear fractions analyzed by western blot. The degree of NF-κB translocation to the nucleus was assessed by the ratio between the expression of P65 in nuclear and cytoplasmic fractions following densitometric quantification on four independent experiments (Right panel). […]

Compound	CNS LacCer levels ([1]; i.c.v. 1×10^7 IU lentivirus at day 35, 10 days after injection)	astrocyte viability [2]	CNS LacCer levels ([1]; 20 mg/kg twice a day from day 40)
shB4galt6: lentivirus-delivered shRNA against b4galt6 (TRCN0000334278; SEQ ID NO:3) (guide CGATGGACTGAACAATTTATTCTCGAGAATAAATTGTTCAGTCCACG)	significant decrease	–	–
CCCCCCCCCC(=O)N[C@H](CN1CCOCC1)[C@H](O)c1ccccc1 [PDMP, D-threo-1-phenyl-2-decanoylamino-3-morpholino-1-propanol]	–	did not affect astrocyte viability; also recorded: no significant cells death	significant decrease
lactosylceramide [LacCer]	–	did not affect astrocyte viability; also recorded: no significant cells death	–
